In PMC9090415, “Discovery of small molecule inhibitors of Plasmodium falciparum apicoplast DNA polymerase” (Journal of Enzyme Inhibition and Medicinal Chemistry, 2022):

Target: P. falciparum apicoplast DNA polymerase (Pf-apPOL) (Plasmodium falciparum, UniProt Q8ILY1)
Assay: Fluorescence-based high-throughput DNA polymerase assay (molecular beacon), primary screen and dose-response
Format: biochemical
Conditions: for DNA Pol: 90 min, 10 µM; for % inhibition apPOL 180' 2.5 / % inhibition apPOL 180' 5 / % inhibition apPOL 180' 10 / % inhibition apPOL 180' 20 / % inhibition apPOL 180' 40 / % inhibition apPOL 180' 80: read at 180'
Summary of the method: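 Single-point screening used 10 µM compound with 20 nM polymerase, 20 nM hairpin substrate and 6 µM dNTPs for 90 min at 25 °C. Confirmatory titrations (2.5–80 µM) followed fluorescence at three times, and IC50 was derived from a fit including a cooperativity term n.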

P. falciparum apicoplast DNA polymerase (Pf-apPOL), sequence (Q8ILY1 entry or part of it): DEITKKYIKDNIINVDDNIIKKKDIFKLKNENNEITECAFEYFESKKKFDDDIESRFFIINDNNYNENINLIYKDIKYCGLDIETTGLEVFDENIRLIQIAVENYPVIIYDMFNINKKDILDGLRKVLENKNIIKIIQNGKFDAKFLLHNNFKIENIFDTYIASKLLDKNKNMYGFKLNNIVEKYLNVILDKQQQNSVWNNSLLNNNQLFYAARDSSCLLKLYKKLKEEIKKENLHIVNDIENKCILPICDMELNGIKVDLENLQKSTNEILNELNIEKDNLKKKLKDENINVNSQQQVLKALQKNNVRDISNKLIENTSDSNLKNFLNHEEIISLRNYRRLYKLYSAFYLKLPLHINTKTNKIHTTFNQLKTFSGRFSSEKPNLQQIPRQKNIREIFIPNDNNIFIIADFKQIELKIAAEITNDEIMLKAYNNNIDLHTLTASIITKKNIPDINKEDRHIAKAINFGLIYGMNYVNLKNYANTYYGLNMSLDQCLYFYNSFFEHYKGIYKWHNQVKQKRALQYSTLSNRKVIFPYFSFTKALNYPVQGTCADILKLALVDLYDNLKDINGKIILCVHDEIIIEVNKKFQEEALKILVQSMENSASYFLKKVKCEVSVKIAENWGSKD

O=C1C(=Cc2ccccc2O)Oc2ccc(O)cc21 [KU0196475]
DNA Pol ("DNA Pol" of the 186 hits list (screen value)): 17
% inhibition Apo pol 10' (DRC-1, concentration 2.5): -5.1779%
% inhibition Apo pol 10' (DRC-1, concentration 5): -7.445%
% inhibition Apo pol 10' (DRC-1, concentration 10): 3.3875%
% inhibition Apo pol 10' (DRC-1, concentration 20): 10.6699%
% inhibition Apo pol 10' (DRC-1, concentration 40): 41.0111%
% inhibition Apo pol 10' (DRC-1, concentration 80): 68.8562%
% inhibition Apol 90' (DRC-1, concentration 2.5): -1.782%
% inhibition Apol 90' (DRC-1, concentration 5): -1.611%
% inhibition Apol 90' (DRC-1, concentration 10): 10.1306%
% inhibition Apol 90' (DRC-1, concentration 20): 24.1034%
% inhibition Apol 90' (DRC-1, concentration 40): 57.9717%
% inhibition Apol 90' (DRC-1, concentration 80): 77.3146%
% inhibition apPOL 180' (DRC-1, concentration 2.5): 3.033%
% inhibition apPOL 180' (DRC-1, concentration 5): 3.658%
% inhibition apPOL 180' (DRC-1, concentration 10): 21.7009%
% inhibition apPOL 180' (DRC-1, concentration 20): 41.2058%
% inhibition apPOL 180' (DRC-1, concentration 40): 72.3539%
% inhibition apPOL 180' (DRC-1, concentration 80): 79.2388%
% inhibition Apo pol 5' (DRC-2, concentration 2.5): -0.68%
% inhibition Apo pol 5' (DRC-2, concentration 5): 0.901%
% inhibition Apo pol 5' (DRC-2, concentration 10): 18%
% inhibition Apo pol 5' (DRC-2, concentration 20): 28%
% inhibition Apo pol 5' (DRC-2, concentration 40): 40%
% inhibition Apo pol 5' (DRC-2, concentration 80): 45%
% inhibition Apol 40' (DRC-2, concentration 2.5): 0.208%
% inhibition Apol 40' (DRC-2, concentration 5): -7.41%
% inhibition Apol 40' (DRC-2, concentration 10): 18%
% inhibition Apol 40' (DRC-2, concentration 20): 33%
% inhibition Apol 40' (DRC-2, concentration 40): 54%
% inhibition Apol 40' (DRC-2, concentration 80): 65%
% inhibition ApPOL 90' (DRC-2, concentration 2.5): 0%
% inhibition ApPOL 90' (DRC-2, concentration 5): -14%
% inhibition ApPOL 90' (DRC-2, concentration 10): 15%
% inhibition ApPOL 90' (DRC-2, concentration 20): 29%
% inhibition ApPOL 90' (DRC-2, concentration 40): 53%
% inhibition ApPOL 90' (DRC-2, concentration 80): 66%
% inhibition apPOL 180' (DRC-2, concentration 2.5): -3.48%
% inhibition apPOL 180' (DRC-2, concentration 5): -88%
% inhibition apPOL 180' (DRC-2, concentration 10): 8%
% inhibition apPOL 180' (DRC-2, concentration 20): 17%
% inhibition apPOL 180' (DRC-2, concentration 40): 45%
% inhibition apPOL 180' (DRC-2, concentration 80): 63%
DNA Pol (primary screen value, DNA Pol): 17

CCCc1ccc(Oc2coc3cc(OC)ccc3c2=O)cc1 [KU0193249]
DNA Pol (186 hits, DNA Pol (screen value), unit not given): 73
DNA Pol ('DNA Pol' (screen value), unit not given): 73
% inhibition Apo pol 10' 2.5 (DRC-1, read at 10', concentration 2.5): 7.919%
% inhibition Apo pol 10' 5 (DRC-1, read at 10', concentration 5): 6.719%
% inhibition Apo pol 10' 10 (DRC-1, read at 10', concentration 10): 11.6444%
% inhibition Apo pol 10' 20 (DRC-1, read at 10', concentration 20): 12.8685%
% inhibition Apo pol 10' 40 (DRC-1, read at 10', concentration 40): 28.2048%
% inhibition Apo pol 10' 80 (DRC-1, read at 10', concentration 80): 56.0479%
% inhibition Apol 90' 2.5 (DRC-1, read at 90', concentration 2.5): 14.2398%
% inhibition Apol 90' 5 (DRC-1, read at 90', concentration 5): 11.6391%
% inhibition Apol 90' 10 (DRC-1, read at 90', concentration 10): 17.4321%
% inhibition Apol 90' 20 (DRC-1, read at 90', concentration 20): 14.1885%
% inhibition Apol 90' 40 (DRC-1, read at 90', concentration 40): 28.8567%
% inhibition Apol 90' 80 (DRC-1, read at 90', concentration 80): 54.3218%
% inhibition apPOL 180' 2.5 (DRC-1, concentration 2.5): 21.2124%
% inhibition apPOL 180' 5 (DRC-1, concentration 5): 19.9497%
% inhibition apPOL 180' 10 (DRC-1, concentration 10): 25.9143%
% inhibition apPOL 180' 20 (DRC-1, concentration 20): 21.3211%
% inhibition apPOL 180' 40 (DRC-1, concentration 40): 35.4665%
% inhibition apPOL 180' 80 (DRC-1, concentration 80): 56.5719%
% inhibition Apo pol 5' (DRC-2, concentration 2.5): 8%
% inhibition Apo pol 5' (DRC-2, concentration 5): 12%
% inhibition Apo pol 5' (DRC-2, concentration 20): 17%
% inhibition Apo pol 5' (DRC-2, concentration 40): 20%
% inhibition Apol 40' (DRC-2, concentration 10): 17%
% inhibition Apol 40' (DRC-2, concentration 20): 20%
% inhibition Apol 40' (DRC-2, concentration 40): 25%
% inhibition ApPOL 90' (DRC-2, concentration 10): 17%
% inhibition ApPOL 90' (DRC-2, concentration 20): 22%
% inhibition ApPOL 90' (DRC-2, concentration 40): 25%
% inhibition apPOL 180' (DRC-2, concentration 5): 8%
% inhibition apPOL 180' (DRC-2, concentration 10): 12%
% inhibition apPOL 180' (DRC-2, concentration 40): 22%
% inhibition Apo pol 5' 2.5 (DRC-2, read at 5', concentration 2.5): 8%
% inhibition Apo pol 5' 5 (DRC-2, read at 5', concentration 5): 12%
% inhibition Apo pol 5' 10 (DRC-2, read at 5', concentration 10): 13%
% inhibition Apo pol 5' 20 (DRC-2, read at 5', concentration 20): 17%
% inhibition Apo pol 5' 40 (DRC-2, read at 5', concentration 40): 20%
% inhibition Apo pol 5' 80 (DRC-2, read at 5', concentration 80): 36%
% inhibition Apol 40' 2.5 (DRC-2, read at 40', concentration 2.5): 6.51%
% inhibition Apol 40' 5 (DRC-2, read at 40', concentration 5): 15%
% inhibition Apol 40' 10 (DRC-2, read at 40', concentration 10): 17%
% inhibition Apol 40' 20 (DRC-2, read at 40', concentration 20): 20%
% inhibition Apol 40' 40 (DRC-2, read at 40', concentration 40): 25%
% inhibition Apol 40' 80 (DRC-2, read at 40', concentration 80): 47%
% inhibition ApPOL 90' 2.5 (DRC-2, read at 90', concentration 2.5): 4.24%
% inhibition ApPOL 90' 5 (DRC-2, read at 90', concentration 5): 14%
% inhibition ApPOL 90' 10 (DRC-2, read at 90', concentration 10): 17%
% inhibition ApPOL 90' 20 (DRC-2, read at 90', concentration 20): 22%
% inhibition ApPOL 90' 40 (DRC-2, read at 90', concentration 40): 25%
% inhibition ApPOL 90' 80 (DRC-2, read at 90', concentration 80): 51%
% inhibition apPOL 180' 2.5 (DRC-2, concentration 2.5): -0.201%
% inhibition apPOL 180' 5 (DRC-2, concentration 5): 8%
% inhibition apPOL 180' 10 (DRC-2, concentration 10): 12%
% inhibition apPOL 180' 20 (DRC-2, concentration 20): 18%
% inhibition apPOL 180' 40 (DRC-2, concentration 40): 22%
% inhibition apPOL 180' 80 (DRC-2, concentration 80): 52%
